Experimental data from ChEMBL document CHEMBL4342418, “1,2,3-Triazole-containing hybrids as potential anticancer agents: Current developments, action mechanisms and structure-activity relationships” (Eur J Med Chem, 2019).

Tests used:
[1] = tested on: HCT-116; test: Antiproliferative activity against human HCT116 cells assessed as reduction in cell viability after 48 hrs by MTT assay; type: functional, cell-based; details: HCT-116, 48 h
[2] = tested on: A549; test: Antiproliferative activity against human A549 cells assessed as reduction in cell viability after 48 hrs by MTT assay; type: functional, cell-based; details: A549, 48 h
[3] = tested on: HT-29; test: Antiproliferative activity against human HT-29 cells assessed as reduction in cell viability after 48 hrs by MTT assay; type: functional, cell-based; details: HT-29, 48 h
[4] = tested on: HBL-100; test: Antiproliferative activity against human HBL100 cells assessed as reduction in cell viability after 48 hrs by MTT assay; type: functional, cell-based; details: HBL-100, 48 h
[5] = tested on: MCF7; test: Antiproliferative activity against human MCF7 cells assessed as reduction in cell viability after 72 hrs by MTT assay; type: functional, cell-based; details: MCF7, 72 h
[6] = tested on: HT-29; test: Antiproliferative activity against human HT-29 cells assessed as reduction in cell viability after 72 hrs by MTT assay; type: functional, cell-based; details: HT-29, 72 h
[7] = tested on: MOLT-4; test: Antiproliferative activity against human MOLT4 cells assessed as reduction in cell viability after 72 hrs by MTT assay; type: functional, cell-based; details: MOLT-4, 72 h
[8] = tested on: MDA-MB-231; test: Antiproliferative activity against human MDA-MB-231 cells by MTT assay; type: functional, cell-based
[9] = tested on: HEK293; test: Cytotoxicity against HEK293 cells by MTT assay; type: cell-based; details: Homo sapiens
[10] = tested on: PC-3; test: cells; type: functional, cell-based; details: Homo sapiens, PC-3, 48 h
Description: Antiproliferative activity against human PC3 cells assessed as reduction in cell viability after 48 hrs by MTT assay

[11] = tested on: U-87 MG; test: Antiproliferative activity against human U87MG cells assessed as reduction in cell viability after 48 hrs by MTT assay; type: functional, cell-based, U-87MG ATCC
[12] = tested on: A549; test: Antiproliferative activity against human A549 cells assessed as reduction in cell viability after 72 hrs by MTT assay; type: functional, cell-based; details: A549, 72 h
[13] = tested on: HepG2; test: Antiproliferative activity against human HepG2 cells assessed as reduction in cell viability after 72 hrs by MTT assay; type: functional, cell-based; details: HepG2, 72 h
[14] = tested on: HeLa; test: Antiproliferative activity against human HeLa cells assessed as reduction in cell viability after 72 hrs by MTT assay; type: functional, cell-based
[15] = tested on: Caco-2; test: Antiproliferative activity against human Caco2 cells assessed as reduction in cell viability after 72 hrs by MTT assay; type: functional, cell-based; details: Caco-2, 72 h
[16] = tested on: K562; test: Antiproliferative activity against human K562 cells assessed as reduction in cell viability after 72 hrs by MTT assay; type: functional, cell-based; details: K562, 72 h
[17] = Cytotoxicity against dog MDCK1 cells assessed as reduction in cell viability after 72 hrs by MTT assay; type: cell-based; details: Canis lupus familiaris, MDCK1, 72 h
[18] = tested on: MCF7; test: cells; type: functional, cell-based; details: Homo sapiens
Description: Antiproliferative activity against human MCF7 cells by MTT assay

[19] = tested on: A549; test: cells; type: functional, cell-based; details: Homo sapiens
Description: Antiproliferative activity against human A549 cells by MTT assay

[20] = tested on: HeLa; test: Antiproliferative activity against human HeLa cells by MTT assay; type: functional, cell-based
[21] = tested on: DU-145; test: Antiproliferative activity against human DU145 cells by MTT assay; type: functional, cell-based
[22] = tested on: DU-145; test: Antiproliferative activity against human DU145 cells assessed as reduction in cell viability after 48 hrs by MTT assay; type: functional, cell-based; details: DU-145, 48 h
[23] = tested on: HEK293; test: Cytotoxicity against HEK293 cells assessed as reduction in cell viability after 48 hrs by MTT assay; type: cell-based; details: Homo sapiens, HEK293, 48 h

`C[C@@H]1CC[C@@]2(OC1)O[C@H]1C[C@H]3[C@@H]4CC=C5C[C@@H](O)CC[C@]5(C)[C@H]4CC[C@]3(C)[C@H]1[C@@H]2C` [DISOGENIN] gave an IC50 [1] of 10.8 to 13.3 µM, an IC50 [2] of 10.8 to 13.3 µM and an IC50 [3] of 10.8 to 13.3 µM. The IC50 [4] was 10.8 to 13.3 µM.
`COc1cc(-n2cc(CO[C@H]3CC[C@@]4(C)C(=CC[C@H]5[C@@H]6C[C@@H]7O[C@]8(CC[C@@H](C)CO8)[C@@H](C)[C@@H]7[C@@]6(C)CC[C@@H]54)C3)nn2)cc(OC)c1OC` showed an IC50 [1] of 5.16 to 9.44 µM, an IC50 [2] of 5.16 to 9.44 µM and an IC50 [3] of 5.16 to 9.44 µM. For the same molecule, the IC50 [4] was 5.16 to 9.44 µM.
Work on `CC(C)(C)c1ccc(Cn2cc(CNC3=CC(=O)c4ccccc4C3=O)nn2)cc1` yielded an IC50 [5] of 6.8 to 31.7 µM, an IC50 [6] of 6.8 to 31.7 µM and an IC50 [7] of 6.8 to 31.7 µM.
In the case of `COC(=O)c1ccc(-n2nc(N)c(C(=O)NCCNC(=O)c3nn(-c4ccc(C(=O)OC)cc4)nc3N)n2)cc1`, the IC50 [8] is reported as 12 µM and the IC50 [9] is reported as > 50 µM.
Work on `COc1ccc(-c2nn(-c3ccccc3)cc2C(=O)c2cn(Cc3ccc(OC)c(OC)c3)nn2)cc1` yielded an IC50 [2] of 0.86 to 3.71 µM, an IC50 [3] of 0.86 to 3.71 µM and an IC50 [10] of 0.86 to 3.71 µM. The IC50 [11] was 0.86 to 3.71 µM.
`COc1ccc(Cn2cc(C(=O)c3cn(-c4ccccc4)nc3-c3ccc(F)cc3)nn2)cc1OC` showed an IC50 [2] of 0.86 to 3.71 µM, an IC50 [3] of 0.86 to 3.71 µM and an IC50 [10] of 0.86 to 3.71 µM. The IC50 [11] was 0.86 to 3.71 µM.
`COc1cc2c(Oc3ccc(NC(=O)C4(C(=O)Nc5ccc(F)cc5)CC4)cc3F)ccnc2cc1OCCCN1CCOCC1` [FORETINIB] showed an IC50 [5] of 2.4 to 4.7 µM, an IC50 [12] of 2.4 to 4.7 µM and an IC50 [13] of 2.4 to 4.7 µM.
In the case of `C[C@@H]1CC[C@@]2(OC1)O[C@H]1C[C@H]3[C@@H]4CC=C5C[C@@H](OCc6cn(-c7ccccc7C#N)nn6)CC[C@]5(C)[C@H]4CC[C@]3(C)[C@H]1[C@@H]2C`, the IC50 [1] is reported as 5.16 to 9.44 µM, the IC50 [2] is reported as 5.16 to 9.44 µM and the IC50 [3] is reported as 5.16 to 9.44 µM. For the same molecule, the IC50 [4] was 5.16 to 9.44 µM.
`COc1ccc(-c2cn(Cc3cc(=O)oc4cc(O)c(O)cc34)nn2)cc1` gave an IC50 [14] of 9.7 to 81.9 µM, an IC50 [15] of 9.7 to 81.9 µM and an IC50 [16] of 9.7 to 81.9 µM. The IC50 [17] was 36.7 to 46 µM.
For `CC/C(=C(\c1ccccc1)c1ccc(OCCN(C)C)cc1)c1ccccc1` [TAMOXIFEN], the IC50 [18] was 10.9 to 18.6 µM, the IC50 [8] was 11.2 µM and the IC50 [9] was > 50 µM. For the same molecule, the IC50 [19] was 10.9 to 18.6 µM, the IC50 [20] was 10.9 to 18.6 µM and the IC50 [21] was 10.9 to 18.6 µM.
In the case of `O=c1cc(Cn2cc(-c3ccccc3)nn2)c2cc(O)c(O)cc2o1`, the IC50 [14] is reported as 9.7 to 81.9 µM, the IC50 [15] is reported as 9.7 to 81.9 µM and the IC50 [16] is reported as 9.7 to 81.9 µM. The IC50 [17] was 36.7 to 46 µM.
With `Cc1ccc(-n2nc(N)c(C(=O)NCCNC(=O)c3nn(-c4ccc(C)cc4)nc3N)n2)cc1` the IC50 [8] was 7 µM and the IC50 [9] was > 50 µM.
`COc1ccc(S(=O)(=O)Nc2cccnc2Nc2ccc(O)cc2)cc1` [ABT-751] gave an IC50 [2] of 1.31 to 1.62 µM, an IC50 [22] of 1.31 to 1.62 µM and an IC50 [23] of 1.31 to 1.62 µM. The IC50 [3] was 1.31 to 1.62 µM.
With `COc1ccc(Cn2cc(C(=O)c3cn(-c4ccccc4)nc3-c3ccc(Cl)cc3)nn2)cc1OC` the IC50 [2] was 0.86 to 3.71 µM, the IC50 [3] was 0.86 to 3.71 µM and the IC50 [10] was 0.86 to 3.71 µM. The IC50 [11] was 0.86 to 3.71 µM.
`C[C@@H]1CC[C@@]2(OC1)O[C@H]1C[C@H]3[C@@H]4CC=C5C[C@@H](OCc6cn(-c7ccccc7[N+](=O)[O-])nn6)CC[C@]5(C)[C@H]4CC[C@]3(C)[C@H]1[C@@H]2C` gave an IC50 [1] of 5.16 to 9.44 µM, an IC50 [2] of 5.16 to 9.44 µM and an IC50 [3] of 5.16 to 9.44 µM. For the same molecule, the IC50 [4] was 5.16 to 9.44 µM.
